# Test system: FGFR3 enzyme
# Assay: FGFR Enzymatic Assay (FRET peptide phosphorylation), FGFR3
# Type: biochemical
# Conditions: IC50 ratio showing FGFR3 selectivity; Table 2A, pre-incubated for 4 hours
# Experimental: The inhibitor potency of the exemplified compounds was measured in an enzyme assay that measures peptide phosphorylation using FRET measurements to detect product formation. Inhibitors were serially diluted in DMSO and a volume of 0.5 μL was transferred to the wells of a 384-well plate.
# GraphPad prism3 was used to analyze the data.
Compound,FGFR1/FGFR3,FGFR4/FGFR3
"CCc1cc(CN2C(=O)N(c3c(F)c(OC)cc(OC)c3F)Cc3cnc(-c4cn(C)nc4C)cc32)no1 [Example 64, 3-(2,6-difluoro-3,5-dimethoxyphenyl)-7-(1,3-dimethyl-1H-pyrazol-4-yl)-1-((5-ethylisoxazol-3-yl)methyl)-3,4-dihydropyrido[4,3-d]pyrimidin-2(1H)-one]",>10,>10
"CCN1C(=O)N(c2c(F)c(OC)cc(OC)c2F)Cc2cnc(-c3ccc(CN4CC[C@H](C#N)C4)cc3)cc21 [Example 25, (S)-1-(4-(3-(2,6-difluoro-3,5-dimethoxyphenyl)-1-ethyl-2-oxo-1,2,3,4-tetrahydropyrido[4,3-d]pyrimidin-7-yl)benzyl)pyrrolidine-3-carbonitrile]",>5,>5
"COc1cc(OC)c(F)c(N2Cc3cnc(-c4cn(C)nc4C)cc3N(c3ccc(F)cc3)C2=O)c1F [Example 40, 3-(2,6-difluoro-3,5-dimethoxyphenyl)-7-(1,3-dimethyl-1H-pyrazol-4-yl)-1-(4-fluorophenyl)-3,4-dihydropyrido[4,3-d]pyrimidin-2(1H)-one]",>10,>10
"COc1cc(OC)c(F)c(N2Cc3cnc(-c4cn(C)nc4C)cc3N(c3cncnc3)C2=O)c1F [Example 61, 3-(2,6-difluoro-3,5-dimethoxyphenyl)-7-(1,3-dimethyl-1H-pyrazol-4-yl)-1-(pyrimidin-5-yl)-3,4-dihydropyrido[4,3-d]pyrimidin-2(1H)-one]",>10,>5
"CCn1cnc(-c2cc3c(cn2)CN(c2c(F)c(OC)cc(OC)c2F)C(=O)C32CC2)c1 [Example 53, 2′-(2,6-difluoro-3,5-dimethoxyphenyl)-6′-(1-ethyl-1H-imidazol-4-yl)-1′H-spiro[cyclopropane-1,4′-[2,7]naphthyridin]-3′(2′H)-one]",>5,>5
"COc1cc(OC)c(F)c(N2Cc3cnc(-c4cn(C)nc4C)cc3N(c3ccnnc3)C2=O)c1F [Example 57, 3-(2,6-difluoro-3,5-dimethoxyphenyl)-7-(1,3-dimethyl-1H-pyrazol-4-yl)-1-(pyridazin-4-yl)-3,4-dihydropyrido[4,3-d]pyrimidin-2(1H)-one]",>10,>10
"COc1cc(OC)c(F)c(N2Cc3cnc(-c4cn(C)nc4C)cc3N(C3CCN(S(C)(=O)=O)CC3)C2=O)c1F [Example 71, 3-(2,6-difluoro-3,5-dimethoxyphenyl)-7-(1,3-dimethyl-1H-pyrazol-4-yl)-1-(1-(methylsulfonyl)piperidin-4-yl)-3,4-dihydropyrido[4,3-d]pyrimidin-2(1H)-one]",>5,>3
"COc1cc(OC)c(F)c(N2Cc3cnc(-c4ccc(C#N)nc4)cc3C3(CC3)C2=O)c1F [Example 20, 5-(2′-(2,6-difluoro-3,5-dimethoxyphenyl)-3′-oxo-2′,3′-dihydro-1′H-spiro[cyclopropane-1,4′-[2,7]naphthyridine]-6′-yl)picolinonitrile]",>5,–
"COc1cc(OC)c(F)c(N2Cc3cnc(-c4cn(C)nc4C)cc3N(c3ccc(C#N)cc3)C2=O)c1F [Example 44, 4-(3-(2,6-difluoro-3,5-dimethoxyphenyl)-7-(1,3-dimethyl-1H-pyrazol-4-yl)-2-oxo-3,4-dihydropyrido[4,3-d]pyrimidin-1 (2H)-yl)benzonitrile]",>10,>10
"CCN1C(=O)N(c2c(F)c(OC)cc(OC)c2F)Cc2cnc(-c3ccc(C4(C#N)CCC4)nc3)cc21 [Example 27, 1-(5-(3-(2,6-difluoro-3,5-dimethoxyphenyl)-1-ethyl-2-oxo-1,2,3,4-tetrahydropyrido[4,3-d]pyrimidin-7-yl)pyridin-2-yl)cyclobutanecarbonitrile]",>10,>10
"COc1cc(OC)c(F)c(N2Cc3cnc(-c4cn(C)nc4C)cc3N(c3cnn(C4CC4)c3)C2=O)c1F [Example 130, 1-(1-cyclopropyl-1H-pyrazol-4-yl)-3-(2,6-difluoro-3,5-dimethoxyphenyl)-7-(1,3-dimethyl-1H-pyrazol-4-yl)-3,4-dihydropyrido[4,3-d]pyrimidin-2(1H)-one]",>5,>5

# The remaining lines, values ahead:
FGFR1/FGFR3,FGFR4/FGFR3,Compound
>3,>5,"COc1ccc(N2C(=O)N(c3c(F)c(OC)cc(OC)c3F)Cc3cnc(-c4cn(C)nc4C)cc32)cc1 [Example 104, 3-(2,6-difluoro-3,5-dimethoxyphenyl)-7-(1,3-dimethyl-1H-pyrazol-4-yl)-1-(4-methoxyphenyl)-3,4-dihydropyrido[4,3-d]pyrimidin-2(1H)-one]"
>3,>5,"COc1cc(OC)c(F)c(N2Cc3cnc(-c4cn(C)nc4C)cc3N(c3ccc(C(=O)N(C)C)cc3)C2=O)c1F [Example 113, 4-(3-(2,6-difluoro-3,5-dimethoxyphenyl)-7-(1,3-dimethyl-1H-pyrazol-4-yl)-2-oxo-3,4-dihydropyrido[4,3-d]pyrimidin-1(2H)-yl)-N,N-dimethylbenzamide]"
>3,>5,"COc1cc(OC)c(F)c(N2Cc3cnc(-c4cn(C)nc4C)cc3N(c3ncccn3)C2=O)c1F [Example 105, 3-(2,6-difluoro-3,5-dimethoxyphenyl)-7-(1,3-dimethyl-1H-pyrazol-4-yl)-1-(pyrimidin-2-yl)-3,4-dihydropyrido[4,3-d]pyrimidin-2(1H)-one]"
>5,>3,"COc1cc(OC)c(F)c(N2Cc3cnc(-c4cnn(CCN5CCC(OC)C5)c4)cc3C3(CC3)C2=O)c1F (stereo not shown) [Example 161, 2′-(2,6-difluoro-3,5-dimethoxyphenyl)-6′-(1-(2-(3-methoxypyrrolidin-1-yl)ethyl)-1H-pyrazol-4-yl)-1′H-spiro[cyclopropane-1,4′-[2,7]naphthyridin]-3′(2′H)-one]"
>5,>10,"COc1cc(OC)c(F)c(N2Cc3cnc(-c4cn(C)nc4C)cc3N(c3ccc(CC#N)cc3)C2=O)c1F [Example 97, 2-(4-(3-(2,6-difluoro-3,5-dimethoxyphenyl)-7-(1,3-dimethyl-1H-pyrazol-4-yl)-2-oxo-3,4-dihydropyrido[4,3-d]pyrimidin-1(2H)-yl)phenyl)acetonitrile]"
>5,>3,"COc1cc(OC)c(F)c(N2Cc3cnc(-c4cnn(CCN5CCC(OC)CC5)c4)cc3C3(CC3)C2=O)c1F [Example 152, 2′-(2,6-difluoro-3,5-dimethoxyphenyl)-6′-(1-(2-(4-methoxypiperidin-1-yl)ethyl)-1H-pyrazol-4-yl)-1′H-spiro[cyclopropane-1,4′-[2,7]naphthyridin]-3′(2′H)-one]"
>5,>5,"COc1cc(OC)c(F)c(N2Cc3cnc(-c4cn(C)nc4C)cc3N(Cc3cc(C(C)C)on3)C2=O)c1F [Example 93, 3-(2,6-difluoro-3,5-dimethoxyphenyl)-7-(1,3-dimethyl-1H-pyrazol-4-yl)-1-((5-isopropylisoxazol-3-yl)methyl)-3,4-dihydropyrido[4,3-d]pyrimidin-2(1H)-one]"
>3,>5,"COc1cc(OC)c(F)c(N2Cc3cnc(-c4cn(C)nc4C)cc3N(c3ccc4[nH]ncc4c3)C2=O)c1F [Example 134, 3-(2,6-difluoro-3,5-dimethoxyphenyl)-7-(1,3-dimethyl-1H-pyrazol-4-yl)-1-(1H-indazol-5-yl)-3,4-dihydropyrido[4,3-d]pyrimidin-2(1H)-one]"

# Reference: patent publication US11173162B2, “Bicyclic heterocycles as FGFR4 inhibitors” (Incyte Corporation, priority 2015, dated 2021)
